Measurements published in PubChem BioAssay (NCI).
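96-well plates; 48 h exposure; 5 concentrations. Endpoints by linear interpolation between flanking doses. Not reached: highest tested concentration assigned. TGI is the concentration that stops growth completely.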

What was measured:
Assay in all cases: NCI anticancer screen, dose series, 48 h
SNB-75 CNS = system: SNB-75 CNS
SW-620 colon = system: SW-620 colon
KM12 colon = system: KM12 colon
OVCAR-3 ovarian = system: OVCAR-3 ovarian
MDA-N = system: MDA-N
SF-268 CNS = system: SF-268 CNS
NCI-H460 lung = system: NCI-H460 lung
HOP-92 NSCLC = system: HOP-92 NSCLC
HL-60(TB) leukemia = system: HL-60(TB) leukemia
SK-MEL-5 melanoma = system: SK-MEL-5 melanoma
NCI-H522 lung = system: NCI-H522 lung
NCI-H226 lung = system: NCI-H226 lung
HCC-2998 colon = system: HCC-2998 colon
K-562 leukemia = system: K-562 leukemia
A498 renal = system: A498 renal
UO-31 renal = system: UO-31 renal
SK-MEL-28 melanoma = system: SK-MEL-28 melanoma
M14 melanoma = system: M14 melanoma
RXF 393 renal = system: RXF 393 renal
LOX IMVI melanoma = system: LOX IMVI melanoma
OVCAR-8 ovarian = system: OVCAR-8 ovarian
HT29 colon = system: HT29 colon
HCT-116 colon = system: HCT-116 colon
UACC-257 melanoma = system: UACC-257 melanoma
SN12C renal = system: SN12C renal
ACHN renal = system: ACHN renal
COLO 205 colon = system: COLO 205 colon
TK-10 renal = system: TK-10 renal
HOP-62 NSCLC = system: HOP-62 NSCLC
MDA-MB-435 = system: MDA-MB-435
SNB-19 CNS = system: SNB-19 CNS
DU-145 prostate = system: DU-145 prostate
SK-OV-3 ovarian = system: SK-OV-3 ovarian
MCF7 breast = system: MCF7 breast
CAKI-1 renal = system: CAKI-1 renal
CCRF-CEM leukemia = system: CCRF-CEM leukemia
RPMI-8226 leukemia = system: RPMI-8226 leukemia
MOLT-4 leukemia = system: MOLT-4 leukemia
HCT-15 colon = system: HCT-15 colon
SF-295 CNS = system: SF-295 CNS
T-47D breast = system: T-47D breast
MDA-MB-231 breast = system: MDA-MB-231 breast
NCI-H23 lung = system: NCI-H23 lung
MALME-3M melanoma = system: MALME-3M melanoma
EKVX NSCLC = system: EKVX NSCLC
U251 CNS = system: U251 CNS
PC-3 prostate = system: PC-3 prostate
SR leukemia = system: SR leukemia
NCI/ADR-RES ovarian = system: NCI/ADR-RES ovarian
A549 NSCLC = system: A549 NSCLC
IGROV1 ovarian = system: IGROV1 ovarian
OVCAR-5 ovarian = system: OVCAR-5 ovarian
786-0 renal = system: 786-0 renal
HS 578T breast = system: HS 578T breast
SF-539 CNS = system: SF-539 CNS
UACC-62 melanoma = system: UACC-62 melanoma
OVCAR-4 ovarian = system: OVCAR-4 ovarian

Structure (SMILES): CCCCCCCc1c(Cl)nc(Cl)nc1Cl
- TGI (SNB-75 CNS): 28.9 µM
- TGI (SW-620 colon): 6.21 µM
- TGI (KM12 colon): 25 µM
- TGI (OVCAR-3 ovarian): 17.1 µM
- TGI (MDA-N): 13.1 µM
- TGI (SF-268 CNS): 16.3 µM
- TGI (NCI-H460 lung): 27.8 µM
- TGI (HOP-92 NSCLC): 11.4 µM
- TGI (HL-60(TB) leukemia): 5.34 µM
- TGI (SK-MEL-5 melanoma): 14.8 µM
- TGI (NCI-H522 lung): 3.85 µM
- TGI (NCI-H226 lung): 4.68 µM
- TGI (HCC-2998 colon): 17 µM
- TGI (K-562 leukemia): 4.16 µM
- TGI (A498 renal): 34.6 µM
- TGI (UO-31 renal): 17.3 µM
- TGI (SK-MEL-28 melanoma): 18.6 µM
- TGI (M14 melanoma): 4.71 µM
- TGI (RXF 393 renal): 6.26 µM
- TGI (LOX IMVI melanoma): 4.49 µM
- TGI (OVCAR-8 ovarian): 5.18 µM
- TGI (HT29 colon): 13.6 µM
- TGI (HCT-116 colon): 9.2 µM
- TGI (UACC-257 melanoma): 23.3 µM
- TGI (SN12C renal): 4.65 µM
- TGI (ACHN renal): 20.8 µM
- TGI (COLO 205 colon): 17.9 µM
- TGI (TK-10 renal): 26.7 µM
- TGI (HOP-62 NSCLC): 33.2 µM
- TGI (MDA-MB-435): 5.94 µM
- TGI (SNB-19 CNS): 24.4 µM
- TGI (DU-145 prostate): 27.4 µM
- TGI (SK-OV-3 ovarian): 18.5 µM
- TGI (MCF7 breast): 26.9 µM
- TGI (CAKI-1 renal): 5.36 µM
- TGI (CCRF-CEM leukemia): 2.66 µM
- TGI (RPMI-8226 leukemia): 8.85 µM
- TGI (MOLT-4 leukemia): 3.51 µM
- TGI (HCT-15 colon): 10.1 µM
- TGI (SF-295 CNS): 31.6 µM
- TGI (T-47D breast): 30.4 µM
- TGI (MDA-MB-231 breast): 9.54 µM
- TGI (NCI-H23 lung): 10.2 µM
- TGI (MALME-3M melanoma): 8.83 µM
- TGI (EKVX NSCLC): 22.2 µM
- TGI (U251 CNS): 9.89 µM
- TGI (PC-3 prostate): 23.7 µM
- TGI (SR leukemia): 3.14 µM
- TGI (NCI/ADR-RES ovarian): 13.3 µM
- TGI (A549 NSCLC): 32.8 µM
- TGI (IGROV1 ovarian): 4.83 µM
- TGI (OVCAR-5 ovarian): 21 µM
- TGI (786-0 renal): 10.2 µM
- TGI (HS 578T breast): 33.2 µM
- TGI (SF-539 CNS): 23.5 µM
- TGI (UACC-62 melanoma): 20.5 µM
- TGI (OVCAR-4 ovarian): 9.87 µM

Structure (SMILES): CCOC(=O)C(NC(=O)CC)(Nc1ccc(S(=O)(=O)Nc2ncccn2)cc1)C(F)(F)F (configuration not stated)
- TGI (SNB-75 CNS): > 100 µM
- TGI (SW-620 colon): > 100 µM
- TGI (KM12 colon): > 100 µM
- TGI (OVCAR-3 ovarian): > 100 µM
- TGI (MDA-N): > 100 µM
- TGI (SF-268 CNS): > 100 µM
- TGI (NCI-H460 lung): > 100 µM
- TGI (HOP-92 NSCLC): > 100 µM
- TGI (HL-60(TB) leukemia): > 100 µM
- TGI (SK-MEL-5 melanoma): > 100 µM
- TGI (NCI-H522 lung): > 100 µM
- TGI (NCI-H226 lung): > 100 µM
- TGI (HCC-2998 colon): > 100 µM
- TGI (K-562 leukemia): > 100 µM
- TGI (UO-31 renal): > 100 µM
- TGI (SK-MEL-28 melanoma): > 100 µM
- TGI (M14 melanoma): > 100 µM
- TGI (RXF 393 renal): > 100 µM
- TGI (LOX IMVI melanoma): > 100 µM
- TGI (OVCAR-8 ovarian): > 100 µM
- TGI (HT29 colon): > 100 µM
- TGI (HCT-116 colon): > 100 µM
- TGI (UACC-257 melanoma): > 100 µM
- TGI (SN12C renal): > 100 µM
- TGI (ACHN renal): > 100 µM
- TGI (COLO 205 colon): > 100 µM
- TGI (HOP-62 NSCLC): > 100 µM
- TGI (MDA-MB-435): > 100 µM
- TGI (SNB-19 CNS): > 100 µM
- TGI (DU-145 prostate): > 100 µM
- TGI (SK-OV-3 ovarian): > 100 µM
- TGI (MCF7 breast): > 100 µM
- TGI (CAKI-1 renal): > 100 µM
- TGI (CCRF-CEM leukemia): > 100 µM
- TGI (RPMI-8226 leukemia): > 100 µM
- TGI (MOLT-4 leukemia): > 100 µM
- TGI (HCT-15 colon): > 100 µM
- TGI (SF-295 CNS): > 100 µM
- TGI (T-47D breast): > 100 µM
- TGI (MDA-MB-231 breast): > 100 µM
- TGI (NCI-H23 lung): > 100 µM
- TGI (MALME-3M melanoma): > 100 µM
- TGI (EKVX NSCLC): > 100 µM
- TGI (U251 CNS): > 100 µM
- TGI (PC-3 prostate): > 100 µM
- TGI (SR leukemia): > 100 µM
- TGI (NCI/ADR-RES ovarian): > 100 µM
- TGI (A549 NSCLC): > 100 µM
- TGI (IGROV1 ovarian): > 100 µM
- TGI (OVCAR-5 ovarian): > 100 µM
- TGI (786-0 renal): > 100 µM
- TGI (HS 578T breast): > 100 µM
- TGI (SF-539 CNS): > 100 µM
- TGI (UACC-62 melanoma): > 100 µM
- TGI (OVCAR-4 ovarian): > 100 µM
